These results are taken from patent US8614241B2, “Ester compound and use thereof” (Sumitomo Chemical Company, Limited, priority 2010, dated 2013).

In this assay the test system is German cockroaches (Blattella germanica). The assay is described as follows: Knock-down test by spraying oil solution on German cockroaches. In kind it is in vivo. As to conditions: 0.00625% (w/v) oil solution, 1.5 ml sprayed, ten adult German cockroaches (5 males, 5 females). Here is the method: Zero point zero zero six two five (0.00625) part of the compound of the present inventions (1) and (2) was dissolved in 10 parts of isopropyl alcohol and the solution was mixed with 89.99375 parts of deodorized kerosene to prepare a 0.00625% (w/v) oil solution.
Ten adult German cockroaches (Blattella germanica, 5 males and 5 females) were released in a test container (diameter 8.75 cm, 7.5 cm high, the bottom face is made of 16 mesh metallic wire), the inner face on which butter was applied, and the container was set at the bottom of a test chamber (bottom face: 46 cm×46 cm, height: 70 cm).
Each 1.5 ml of the oil solution of the compound of the present invention (1) and (2) was sprayed using a spray gun at a pressure of 0.4 kg/cm^2 from 60 cm higher than the upper face of the container. Thirty seconds after the spraying, the container was pulled out from the chamber. Two minutes after spraying, the number of knocked-down cockroaches was counted and a knock-down ratio was determined (repeated once). A knocked-down ratio was calculated by the following equation. Knocked-down ratio (%)=(Number of knocked-down cockroaches/Number of test cockroaches)×100 The results (2 minutes after spraying) are shown in Table 1.

For `C#CCn1c(C)nn(COC(=O)[C@@H]2[C@@H](/C=C(\C#N)C=C)C2(C)C)c1=O` [compound of the present invention (1), 3-methyl-5-oxo-4-(2-propynyl)-4,5-dihydro-[1,2,4]triazolylmethyl=(1R)-trans-3-[(1Z)-2-cyano-1,3-butadienyl]-2,2-dimethylcyclopropane carboxylate], the “Knock-down ratio (%) 2 minutes after spraying” value was found to be 100%.

In the case of `C#CCn1c(C)nn(COC(=O)[C@@H]2[C@@H](/C=C(C#N)/C=C/C)C2(C)C)c1=O` [compound of the present invention (2), 3-methyl-5-oxo-4-(2-propynyl)-4,5-dihydro-[1,2,4]triazolylmethyl=(1R)-trans-3-[(1Z,3E)-2-cyano-1,3-pentadienyl]-2,2-dimethylcyclopropane carboxylate], the “Knock-down ratio (%) 2 minutes after spraying” value worked out at 100%.
